What was measured:
MycN protein = target: T1, MycN protein (Homo sapiens, UniProt P04198); assay: Degradation of MycN protein, Western blot, SKNBE2 cells (Example 160); type: cell-based
T1 construct: either 2×10^6 of L-363 (human leukemia cell line) or SKNBE2 (neuroblastoma cell line) cells; endogenous in cells; host or cells: SKNBE2 / SK-N-BE(2) neuroblastoma cells
T1 sequence (P04198 1-464): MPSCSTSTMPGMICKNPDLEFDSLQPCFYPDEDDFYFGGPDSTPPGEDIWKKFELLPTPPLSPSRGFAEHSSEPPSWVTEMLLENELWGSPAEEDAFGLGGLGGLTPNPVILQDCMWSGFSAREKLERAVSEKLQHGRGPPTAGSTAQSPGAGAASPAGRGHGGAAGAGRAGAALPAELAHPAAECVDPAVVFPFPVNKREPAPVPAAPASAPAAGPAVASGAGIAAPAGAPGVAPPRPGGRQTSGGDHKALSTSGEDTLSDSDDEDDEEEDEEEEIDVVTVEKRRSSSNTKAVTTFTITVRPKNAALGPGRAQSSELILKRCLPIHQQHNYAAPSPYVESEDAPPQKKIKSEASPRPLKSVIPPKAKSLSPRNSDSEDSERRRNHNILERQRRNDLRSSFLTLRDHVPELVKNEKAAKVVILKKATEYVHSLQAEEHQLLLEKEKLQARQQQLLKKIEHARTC
Method in brief: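 L-363 or SKNBE2 cells (passage <40, mostly <30) at 1×10^6 cells/mL in RPMI 1640/10% FBS were exposed 6 h to compound added from a 1 mM stock. RIPA lysates (25–30 ug protein) were analysed by SDS-PAGE and immunoblot with 1:500 primary antibody, with protein level quantified by band densitometry.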

MycC protein = target: T2, MycC protein (Homo sapiens, UniProt P01106); assay: Degradation of MycC protein, Western blot, L-363 cells (Example 160); type: cell-based; conditions: 6 h
T2 construct: either 2×10^6 of L-363 (human leukemia cell line) or SKNBE2 (neuroblastoma cell line) cells; endogenous in cells; host or cells: L-363 / L363 human leukemia cells
Protocol: In a T150 flask was plated either 2×10^6 of L-363 (human leukemia cell line) or SKNBE2 (neuroblastoma cell line) cells in a total of 30 mL containing Roswell Park Memorial Institute (RPMI) 1640 Medium (Thermo Fisher, Cat. #11875-085), 10% Fetal Bovine Serum (FBS, Thermo Fisher: Cat. #10437-028), 1% Penicillin/streptomycin (Thermo Fisher: Cat. #10378016), and 1% Amophotericin B (Thermo Fisher, Cat. #15290026). The cells were split every 72 hours by reseeding the L-363 or SKNBE2 cells, and the passage number was noted. It is noteworthy that cell cultures that were above 40 passages were not used, and most experiments were done with cells of less than 30 passages.
In a 6-well cell culture plate, a total of 3 mL of either 1×10^6 cells/mL of L-363 or SKNBE2 cells were seeded, resulting in a total of 3×10^6 cells per well. To each well containing 3 mL of either L-363 or SKNBE2 cell line was added 6 uL of MycN modulating compound (1 mM) and the resulting plate was shaken from left to right, and not swirled. After 6 hours, the cells were placed in a 15 mL falcon tube and spun at 500 Gs at 4° C. in a swinging bucket centrifuge. The medium was then carefully removed without disturbing the pellet. The pellet was then washed with 3 mLs of chilled phosphate buffered saline (PBS) and subjected to the spin cycle. PBS was then removed and the pellet was lysed in 200 uL of radioimmunoprecipitation (RIPA) lysis buffer (Thermo Fisher: Cat. #899000) that is supplemented with protease and phosphatase inhibitors (Thermo Fisher: Cat. #A32959). The cell lysate was then subjected to spinning in a centrifuge for 10 minutes at 13000 G at 4° C. The supernatant was then carefully transferred to a fresh eppendorf tube without disturbing the pellet (˜180 uL). The protein concentration of the cell lysate was then determined by using a bicinchoninic acid (BCA assay) according to manufacturer's protocol (Thermo Fisher: Cat. #23227).
Cell lysate, approximately 25 ug-30 ug, was loaded per well in a 4-20% polyacrylamide gel (Biorad. Cat. #5671094). After running the dye front off of the gel, the gel was transferred to a nitrocellulose membrane (Biorad: Cat. #1704159) using the transblot turbo system (Biorad: Cat. #1704150) according to manufacturer's protocol. After transferring for 30 minutes, the membrane was blocked with 5% BSA for 1 hour at room temperature. The BSA was then washed off and the primary antibody of choice (1:500) was added, and the membrane was incubated with the primary antibody at 4° C. for overnight. The next morning, the primary antibody was removed and the membrane was washed with 1×-TBST for 10 minutes and repeated three more times. Following the last wash, a secondary antibody (Molecular Devices. Cat. #R8209 or R8208) was added at 1:5000 dilution and incubated for 1 hour at room temperature. Following the incubation with the secondary antibody, the membrane was washed with 1×-TBST for 10 minutes and repeated three more times. Following the last wash, the membrane was washed with de-ionized water twice and dried for at least two hours. Once the membrane is completely dry, the Molecular Devices Spectra Max western system was used to observe the bands. The western image was saved and the band density was measured with ImageJ software.

T2 sequence (P01106 whole entry): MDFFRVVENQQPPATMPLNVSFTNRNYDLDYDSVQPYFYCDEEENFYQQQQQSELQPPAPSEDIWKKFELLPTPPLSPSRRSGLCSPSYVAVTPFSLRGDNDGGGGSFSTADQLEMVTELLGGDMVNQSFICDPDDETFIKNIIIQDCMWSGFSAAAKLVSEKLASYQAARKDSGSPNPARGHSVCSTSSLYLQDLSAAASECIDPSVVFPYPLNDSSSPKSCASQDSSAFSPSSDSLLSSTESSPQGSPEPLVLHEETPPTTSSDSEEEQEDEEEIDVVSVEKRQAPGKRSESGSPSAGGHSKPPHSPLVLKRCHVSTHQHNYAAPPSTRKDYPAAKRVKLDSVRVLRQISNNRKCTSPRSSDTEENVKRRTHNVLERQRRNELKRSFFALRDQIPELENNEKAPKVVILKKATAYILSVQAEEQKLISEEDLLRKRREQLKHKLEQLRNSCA

Row | SMILES | inhibition at 2 µM (MycN protein; SKNBE2, 6 h) | inhibition at 2 µM (MycC protein) | inhibition at 2 µM (MycN protein; 6 h)
1 | CN(c1nccc(Nc2cc(C3CC3)[nH]n2)n1)[C@H]1CC[C@H](NC(=O)Cc2ccnc(C#N)c2)CC1 [Compound 124, 2-(2-cyanopyridin-4-yl)-N-((1R,4R)-4-((4-((5-cyclopropyl-1H-pyrazol-3-yl)amino)pyrimidin-2-yl)(methyl)amino)cyclohexyl)acetamide] | 50 to 79% | 80 to 100% | 
2 | CN(c1nccc(Nc2cc(C3CC3)[nH]n2)n1)[C@H]1CC[C@H](NC(=O)Cc2cccc(C#N)n2)CC1 [Compound 125, 2-(6-cyanopyridin-2-yl)-N-((1R,4R)-4-((4-((5-cyclopropyl-1H-pyrazol-3-yl)amino)pyrimidin-2-yl)(methyl)amino)cyclohexyl)acetamide] | 80 to 100% | 80 to 100% | 
3 | COc1ccc(C#N)cc1CC(=O)N[C@H]1CC[C@H](N(C)c2nccc(Nc3cc(C4CC4)[nH]n3)n2)CC1 [Compound 126, 2-(5-cyano-2-methoxyphenyl)-N-((1R,4R)-4-((4-((5-cyclopropyl-1H-pyrazol-3-yl)amino)pyrimidin-2-yl)(methyl)amino)cyclohexyl)acetamide] | < 20% | 80 to 100% | 
4 | CN(c1nccc(Nc2cc(C3CC3)[nH]n2)n1)[C@H]1CC[C@H](C(=O)NCc2cccc(C(F)(F)F)c2)CC1 [Compound 127, (1R,4R)-4-((4-((5-cyclopropyl-1H-pyrazol-3-yl)amino)pyrimidin-2-yl)(methyl)amino)-N-(3-(trifluoromethyl)benzyl)cyclohexane-1-carboxamide] | 80 to 100% | 80 to 100% | 
5 | CN(c1nccc(Nc2cn(C3CCCC3)cn2)n1)[C@H]1CC[C@H](NC(=O)C2Cc3ccccc3C2)CC1 [Compound 130, N-((1R,4R)-4-((4-((1-cyclopentyl-1H-imidazol-4-yl)amino)pyrimidin-2-yl)(methyl)amino)cyclohexyl)-2,3-dihydro-1H-indene-2-carboxamide] | < 20% | 50 to 79% | 
6 | CN(c1nccc(Oc2cc(C3CCCC3)[nH]n2)n1)C1CCC(NC(=O)Cc2cccc(C(F)(F)F)c2)CC1 [Compound 131, N-((1R,4R)-4-((4-((5-cyclopentyl-1H-pyrazol-3-yl)oxy)pyrimidin-2-yl)(methyl)amino)cyclohexyl)-2-(3-(trifluoromethyl)phenyl)acetamide] | 20 to 49% | < 20% | 
7 | CN(c1nccc(Nc2cc(C3CC3)[nH]n2)n1)[C@H]1CC[C@H](NC(=O)c2cccc(S(C)(=O)=O)c2)CC1 [Compound 132, N-((1R,4R)-4-((4-((5-cyclopropyl-1H-pyrazol-3-yl)amino)pyrimidin-2-yl)(methyl)amino)cyclohexyl)-3-(methylsulfonyl)benzamide] | 80 to 100% | 80 to 100% | 
8 | CN(c1nccc(Nc2cc(C3CC3)[nH]n2)n1)C1CCC(CC(=O)Nc2cn(C3COC3)cn2)CC1 [Compound 133, 2-((1R,4R)-4-((4-((5-cyclopropyl-1H-pyrazol-3-yl)amino)pyrimidin-2-yl)(methyl)amino)cyclohexyl)-N-(1-(oxetan-3-yl)-1H-imidazol-4-yl)acetamide] | 80 to 100% | 80 to 100% | 
9 | CN(c1nccc(Nc2cc(C3CC3)[nH]n2)n1)C1CCC(CC(=O)NC2Cc3cc(F)c(F)cc3C2)CC1 (stereo not shown) [Compound 134, 2-(4-((4-((5-cyclopropyl-1H-pyrazol-3-yl)amino)pyrimidin-2-yl)(methyl)amino)cyclohexyl)-N-(5,6-difluoro-2,3-dihydro-1H-inden-2-yl)acetamide] |  | 80 to 100% | 20 to 49%
10 | CN(c1nccc(Nc2cc(C3CC3)[nH]n2)n1)[C@H]1CC[C@H](NC(=O)c2ccc(S(C)(=O)=O)cn2)CC1 [Compound 135, N-((1R,4R)-4-((4-((5-cyclopropyl-1H-pyrazol-3-yl)amino)pyrimidin-2-yl)(methyl)amino)cyclohexyl)-5-(methylsulfonyl)picolinamide] | < 20% | 80 to 100% | 
11 | CN(c1nccc(Nc2cc(C3CC3)[nH]n2)n1)[C@H]1CC[C@H](NC(=O)c2cccc(C#N)c2)CC1 [Compound 136, 3-cyano-N-((1R,4R)-4-((4-((5-cyclopropyl-1H-pyrazol-3-yl)amino)pyrimidin-2-yl)(methyl)amino)cyclohexyl)benzamide] |  | 80 to 100% | 50 to 79%
12 | CN(c1nccc(Nc2cc(C3CC3)[nH]n2)n1)[C@H]1CC[C@H](NC(=O)c2ccc(C#N)cn2)CC1 [Compound 137, 5-cyano-N-((1R,4R)-4-((4-((5-cyclopropyl-1H-pyrazol-3-yl)amino)pyrimidin-2-yl)(methyl)amino)cyclohexyl)picolinamide] | < 20% | 20 to 49% | 
13 | CN(c1cc(C2CCCC2)[nH]n1)c1ccnc(N(C)C2CCC(CC(=O)NC3Cc4ccc(C#N)cc4C3)CC2)n1 (stereo not shown) [Compound 138, N-(5-cyano-2,3-dihydro-1H-inden-2-yl)-2-(4-((4-((5-cyclopentyl-1H-pyrazol-3-yl)(methyl)amino)pyrimidin-2-yl)(methyl)amino)cyclohexyl)acetamide] |  | < 20% | < 20%
14 | Cn1nnc2cc(C(=O)N[C@H]3CC[C@H](N(C)c4nccc(Nc5cc(C6CC6)[nH]n5)n4)CC3)ccc21 [Compound 139, N-((1R,4R)-4-((4-((5-cyclopropyl-1H-pyrazol-3-yl)amino)pyrimidin-2-yl)(methyl)amino)cyclohexyl)-1-methyl-1H-benzo[d][1,2,3]triazole-5-carboxamide] | 80 to 100% | 80 to 100% | 
15 | Cn1cc(C(=O)N[C@H]2CC[C@H](N(C)c3nccc(Nc4cc(C5CC5)[nH]n4)n3)CC2)nn1 [Compound 140, N-((1R,4R)-4-((4-((5-cyclopropyl-1H-pyrazol-3-yl)amino)pyrimidin-2-yl)(methyl)amino)cyclohexyl)-1-methyl-1H-1,2,3-triazole-4-carboxamide] | 80 to 100% | 80 to 100% | 
16 | CN(c1nccc(Nc2cc(C3CC3)[nH]n2)n1)[C@H]1CC[C@H](NC(=O)c2cn3cccnc3n2)CC1 [Compound 141, N-((1R,4R)-4-((4-((5-cyclopropyl-1H-pyrazol-3-yl)amino)pyrimidin-2-yl)(methyl)amino)cyclohexyl)imidazo[1,2-a]pyrimidine-2-carboxamide] | 80 to 100% | 80 to 100% | 
17 | CN(c1nccc(Nc2cc(C3CC3)[nH]n2)n1)[C@H]1CC[C@H](NC(=O)c2nc3ccccn3n2)CC1 [Compound 142, N-((1R,4R)-4-((4-((5-cyclopropyl-1H-pyrazol-3-yl)amino)pyrimidin-2-yl)(methyl)amino)cyclohexyl)-[1,2,4]triazolo[1,5-a]pyridine-2-carboxamide] | 80 to 100% | 80 to 100% | 
